Measured values: PMC6707612, “Cyclic-di-GMP binds to histidine kinase RavS to control RavS-RavR phosphotransfer and regulates the bacterial lifestyle transition between virulence and swimming” (PLoS Pathogens, 2019)
Values joined by “and” are separate entries in the source; they are usually repeats but may differ in a detail not shown here. Identical values can stand only once.

Legend:
[1] = target: T1, RavR^ΔEAL (Xanthomonas campestris pv. campestris, UniProt Q8P9A7); experiment: microscale thermophoresis (MST) binding; details: 20 nM fluorescein-labelled nucleotide, read-out: dissociation constant (Kd)
T1 sequence (Q8P9A7 with tags, fused parts or gaps): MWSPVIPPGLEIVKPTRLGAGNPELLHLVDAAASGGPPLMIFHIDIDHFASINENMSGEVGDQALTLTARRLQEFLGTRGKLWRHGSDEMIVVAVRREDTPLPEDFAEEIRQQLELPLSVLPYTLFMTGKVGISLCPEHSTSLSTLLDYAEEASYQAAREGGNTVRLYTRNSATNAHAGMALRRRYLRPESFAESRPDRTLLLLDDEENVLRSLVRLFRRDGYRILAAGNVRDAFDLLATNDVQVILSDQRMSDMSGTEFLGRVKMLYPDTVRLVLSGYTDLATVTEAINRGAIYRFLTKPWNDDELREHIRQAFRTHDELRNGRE

[2] = target: T2, RavS^ΔN (Xanthomonas campestris pv. campestris, UniProt Q8P9A6); experiment: in vitro RavS-RavR phosphotransfer assay (RavS~P level by autoradiography); assay type: biochemical
T2 sequence (Q8P9A6 352-697): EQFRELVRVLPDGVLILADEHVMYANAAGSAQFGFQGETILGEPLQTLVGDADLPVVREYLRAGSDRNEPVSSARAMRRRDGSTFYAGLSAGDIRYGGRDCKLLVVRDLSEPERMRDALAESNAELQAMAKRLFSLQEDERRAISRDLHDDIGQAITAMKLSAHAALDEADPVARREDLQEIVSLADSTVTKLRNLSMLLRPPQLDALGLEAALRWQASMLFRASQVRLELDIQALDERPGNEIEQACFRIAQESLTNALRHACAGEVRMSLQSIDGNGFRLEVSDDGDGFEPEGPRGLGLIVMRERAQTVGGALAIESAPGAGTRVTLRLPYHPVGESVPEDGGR
Description: (a) c-di-GMP enhances RavS-RavR phosphotransfer in vitro. A total of 5 μM RavS^ΔN was autophosphorylated for 15 min by the addition of 10 μCi [γ-^32P]ATP. A total of 15 μM RavR^ΔEAL or RavR^ΔEAL(D496A) was added and incubated for 30 min at 25°C. A total of 100 μM c-di-GMP was added if necessary. The reactions were terminated with 5× SDS loading buffer before autoradiography. The experiment was repeated three times. (b) Time course analyses of the impact of c-di-GMP on the velocity of RavS-RavR phosphotransfer. The autophosphorylation and phosphotransfer reactions were set as mentioned in (a). Various concentrations of c-di-GMP were added to the reactions and isotopic signals (band intensities) of RavS~P were measured after autoradiography. (c–d) c-di-GMP triggered an increase in RavS-RavR phosphotransfer in a dose-dependent manner. (c) Various concentrations of c-di-GMP (0, 5, 10, 15, 30, 50, 75 and 100 μM) were added to the RavS-RavR phosphotransfer reactions. (d) The phosphorylated level of RavS^ΔN~P was quantified by ImageJ and the EC50 value was estimated by Origin 8.5 software. In (b) and (d), the intensity of each data point is the average from three experimental repeats. (e) c-di-GMP triggered increase in RavS-RavR phosphotransfer is highly specific. […] (f) RavS specifically interacts with fl-c-di-GMP. The interaction between RavS^ΔTrM and various nucleotides, including fl-c-di-GMP, fl-cGMP and fl-c-di-AMP, were measured by microscale thermophoresis (MST). A total of 20 nM fluorescein-labelled nucleotides and increasing concentrations of proteins were incubated and measured by MST. The dissociation constant (Kd) was quantified to estimate the binding affinity. Each experiment was repeated three times.
An in vitro autophosphorylation assay was conducted as described in our previous study. Purified protein was incubated with 10 μM ATP containing 10 μCi [γ-^32P]ATP (PerkinElmer, USA) in the reaction buffer (50 mM Tris-HCl, pH 7.8, 25 mM NaCl, 25 mM KCl, 5 mM MgCl2, 2 mM DTT) for the indicated time at 28°C. If necessary, c-di-GMP was added to the mixture at the same time as ATP. For the phosphoryl transfer assay, purified RR protein or its derivative was added into the reaction mixture containing the phosphorylated HK. The autophosphorylation or phosphoryl transfer reaction was terminated by adding 5× SDS-PAGE loading buffer. Phosphorylated proteins were separated by 12% SDS-PAGE. After electrophoresis, gels were exposed to a phosphor screen (GE Healthcare) and the autoradiographic signals were detected by a Typhoon FLA7000 (GE Healthcare).

[3] = target: STING; design: method as in PMID 26055114; details: upper end of reported range; cited from earlier work

Row | Compound | Kd [1] | EC50 ([2]; 5 μM RavS^ΔN, 15 μM RavR^ΔEAL, 30 min at 25°C, RavS^ΔN~P level quantified by ImageJ, read-out: median effect concentration (EC50) on RavS-RavR phosphotransfer) | T50: time that signal intensity of RavS~P decreased to half of the initiation stage ([2]; 15 μM c-di-GMP present, without c-di-GMP 38.2 min) [min] | Kd [3] [µM]
1 | Nc1nc2c(ncn2[C@@H]2O[C@@H]3COP(=O)(O)O[C@H]4[C@@H](OC(=O)NCCCCCCNC(=O)c5ccc6c(c5)C(=O)OC65c6ccc(O)cc6Oc6cc(O)ccc65)[C@H](n5cnc6c(=O)[nH]c(N)nc65)O[C@@H]4COP(=O)(O)O[C@H]3[C@H]2O)c(=O)[nH]1 [fl-c-di-GMP, 2′-Fluo-AHC-c-di-GMP] | 111 µM and > 80 µM |  |  | 
2 | Nc1nc2c(ncn2[C@@H]2O[C@@H]3COP(=O)(O)O[C@H]4[C@@H](O)[C@H](n5cnc6c(=O)[nH]c(N)nc65)O[C@@H]4COP(=O)(O)O[C@H]3[C@H]2O)c(=O)[nH]1 [c-di-GMP, Cyclic di-GMP] |  | 15.6 µM and ~15.6 µM | 16.9 | 14.5
